Reference: patent US20230404980A1, “METHODS OF TREATING SPONDYLOARTHRITIS OR SYMPTOMS THEREOF” (UNIVERSITY HEALTH NETWORK, priority 2020, published 2023)

What was measured:
[1] = cited from earlier work
curdlan-treated SKG mice [2] = experiment: Curdlan-treated SKG mouse model of SpA: clinical scores, histopathology, microCT; type: in vivo
Method: (§1) Methods: Curdlan (β-glucan) or MIF-plasmid (mini-circle) treated SKG mice (8-10 weeks) were used as SpA mouse models. The expression of MIF in serum or tissues was measured by ELISA, quantitative PCR (qPCR), western blotting, immunohistochemistry (IHC) and/or immunofluorescence (IF). MIF knockout (KO) SKG mice were generated as MIF deficiency mice. MIF inhibitor (MIF098) was used to block the function of MIF in SpA mouse models to assess the therapeutic or prophylactic effects in a curdlan-treated SpA mouse model. Populations of immunological cells were assessed by flow cytometry. Anti-Gr-1 monoclonal antibody (mAb) or isotype control mAb was used to block the function of neutrophils or monocytes. Clinical scores, histopathology and microCT imaging were used to assess the severity of inflammation in the various tissues of the mouse models.
#1. Animal model, treatments and clinical scoring: Female and male SKG mice (age 8-10 weeks) were injected with PBS, curdlan (3 mg/mouse, i.p.), MIF-plasmid (EEV, 5 μg/mouse, i.v., from systemic biosciences), or control-plasmid (5 μg/mouse, i.v., from systemic biosciences) to induce SpA phenotype and weekly observed the clinical manifestations of inflammation and NBFs over 8 weeks (n=10 mice/group). C57BL/6 and BALB/c mice (age 8-10 weeks) were also subjected to MIF- or control-plasmid injection to observe clinical symptoms. MIF- or control plasmid was administered by HDD tail vein injection as previously described (11). We also generated Mif−/− (KO) SKG mice by crossing SKG mice and BALB/c Mif KO mice (22).
(§2) After 1 or 4 weeks post-curdlan treatment, we injected MIF antagonist (MIF098; 40 mg/kg, twice/day, i.p.) (23) or control vehicle [PEG400 (Sigma, cat#91893) and HP-P-P-CD (Sigma, cat#C0926)] to assess the prophylactic and therapeutic effects of the MIF098 on the inflammation and NBFs in the SpA mouse model until 8 weeks post-curdlan treatment. Anti-mouse Gr-1 antibody (100 μg/mouse, Life Technologies) or isotype IgG monoclonal antibodies (100 μg/mouse, Life Technologies) were administered on day 3, 6, 9, 12 and 15 post-curdlan treatment.
(§3) Clinical scores for SpA-related manifestations were assessed based on severity scales (Table 1); arthritis, maximum 6 points; dermatitis, maximum 2 points; blepharitis, maximum 2 points). The scores were evaluated at least 2 independent scorers in a blinded fashion and final scores were the average of the observations. At the endpoint, ankle joints, spleen and lymph nodes (PLNs and MLNs) were dissected for FACS, one ankle was dissected prior to storage in RNA later for qPCR unless used for FACS, the other ankle was kept intact and fixed in 10% neutral buffered formalin for histopathological assessments. The upper tail spine, pelvis, eyes and ileum were dissected and fixed in 10% neutral buffered formalin for histopathology. For ankle digestion, skin was peeled off and toes (at distal phalanges) and tibia (˜0.5 cm above tibia) were cut off. After flushing bone marrow, the tissue was digested with RPMI culture media containing hyaluronidase and collagenase type VIII for 1 h at 37° C. in incubator. Following passing through 70 μm of cell strainer and RBC lysis treatment, cells were centrifuged and used for FACS analysis.
Ankle joints, tail spine, and pelvis were fixed in 10% neutral buffered formalin for at least 72 h, decalcified in 10% EDTA (BioShop) for 14-21 days and embedded in paraffin. Eyes and ileum were fixed in formalin for at least 72 h without decalcification. Serial sections (4 μm) were stained with hematoxylin and eosin (H&E; Fisher Scientific). To assess endochondral ossification, safranin O/ fast green staining was also applied to NBF in distal tibia as previously described (24, 25). For histological scores, multiple sections (three sections approximately 40-80 μm apart) per joint sample were evaluated by 2 independent scorers in a blinded fashion according to histological assessments as previously reported (11, 24). […]

curdlan-treated SKG mice [3] = experiment: Flow cytometry of immune cell populations from curdlan-treated SKG mice; type: in vivo, mouse
Method: as §1, §2, §3
For all panels, single cell suspensions were first stained with a fixable live dead stain (L/D NIR, Invitrogen, cat#L10119) as directed by the manufacturers. Cells were blocked with FcX (BioLegend, cat#101320) or Monocyte Blocker (BioLegend, cat#426102) prior to staining with surface antibodies. For experiments in which transcription factors were stained, cells were fixed and permeabilized with True-Nuclear kit (BioLegend, cat#424401) as directed. For experiments in which cytokines were stained, cells were fixed with a PFA buffer and permeabilized with intracellular staining buffer (BioLegend, cat#420801 and cat#421002) as indicated. Brefeldin A (BioLegend, cat#420601) with or without PMA/ionomycin (BioLegend, cat#423302) were used for in vitro stimulations to detect intracellular cytokines. Data were acquired on LSR II or Canto II (BD) and analyzed with FlowJo (version 10.6, Becton Dickinson).

human Tregs = experiment: Th17 acquisition assay in human Tregs and cytokine measurement; type: cell-based; conditions: rhMIF 50 ng/ml, 12 days
Method: Human naïve CD4+ T cells and Tregs (CD4+CD25+CD127low) were isolated from PBMCs of healthy male controls without any history of back pain, arthritis, and joint injuries (age: 18-40, n=4 individuals in total) using the human naïve T cells isolation kit (STEM CELL, Cat #19555) and Treg isolation kit (STEM CELL, cat#18063), respectively. Isolated human Tregs (3×10^4 cells/well) were cultured in the complete IMDM culture media containing ImmunoCult™ Human CD3/CD28/CD2 T Cell Activator (25 μl/ml, STEMCELL, cat#10970), and rhIL-2 (100 IU/ml, BioLegend, cat#589102) alone or in combination with or without rhMIF (50 ng/ml, BioLegend, cat#599404), rhIL-1β (25 ng/ml, BioLegend, cat#579402) and rhIL-23 (100 ng/ml, BioLegend, cat#574102) for 12 days. Each culture media was replaced ever 2-3 days. The cells were used for further analysis.
Released cytokine in cell culture supernatant on day 12 was quantified using the LEGENDplex Human Th17 Cytokine Panel (BioLegend, cat#741032) according to the manufacturer's instructions.
For all panels, single cell suspensions were first stained with a fixable live dead stain (L/D NIR, Invitrogen, cat#L10119) as directed by the manufacturers. Cells were blocked with FcX (BioLegend, cat#101320) or Monocyte Blocker (BioLegend, cat#426102) prior to staining with surface antibodies. For experiments in which transcription factors were stained, cells were fixed and permeabilized with True-Nuclear kit (BioLegend, cat#424401) as directed. […] Data were acquired on LSR II or Canto II (BD) and analyzed with FlowJo (version 10.6, Becton Dickinson).
The concentration of MIF in SKG mice or culture supernatant media and the concentration of IL-17A in the human Tregs culture media were assessed by mouse MIF ELISA kit (LEGEND MAX™ Mouse MIF ELISA Kit, BioLegend, cat# 44107) and Human IL-17A ELISA kit (LEGEND MAX™ Human IL-17A ELISA Kit, BioLegend, cat# 433917) were used, respectively. Samples were analyzed according to the manufacture's instruction.

[4] = prophylactic: MIF098 40 mg/kg i.p. twice daily from 1 to 8 weeks post-curdlan, female SKG mice, vs CTL
[5] = SKG SpA mouse model, summary of Example 1
[6] = prophylactic MIF098, 8 weeks post-curdlan, vs CTL

## CC(C)C(=O)c1c(C(C)C)nn2ccccc12 [Ibudilast, 2-methyl-1-(2-propan-2-ylpyrazolo[1,5-a]pyridin-3-yl)propan-1-one]
[1]; clinical trials for asthma and multiple sclerosis
  toxicity in clinical trials: minimal toxicity
[1]; single 30-mg dose followed by 14 days of 30 mg b.i.d, healthy adults
  safety: generally safe

## C=C1Cc2ccc(C)cc2C1Cc1cccc(C)c1 (stereo not shown) [MIF098]
curdlan-treated SKG mice [2]; SKG SpA mouse model, MIF blockade
  SpA clinical manifestations (colitis, psoriasis, arthritis in axial and peripheral joints): dramatically suppressed or attenuated
curdlan-treated SKG mice [2]; prophylactic, 8 weeks post-curdlan, vs CTL
  inflammation in the ankle, tail spine, sacroiliac joints, and ileum (histology and histopathology scoring): Lower severity of inflammation
curdlan-treated SKG mice [2]; prophylactic, distal tibia, 8 weeks post-curdlan, vs CTL
  new bone formation (NBF), microCT imaging and histological assessments: did not display an evident NBF
curdlan-treated SKG mice [2]; [4]
  severity of blepharitis (clinical score): reduced severity
  severity of psoriasis-like dermatitis (clinical score): reduced severity
curdlan-treated SKG mice [2]; prophylactic: MIF098 40 mg/kg i.p. twice daily from 1 to 8 weeks post-curdlan, female SKG mice, vs vehicle control (CTL)
  severity of arthritis (clinical score): reduced severity
curdlan-treated SKG mice [2]; therapeutic: MIF098 from 4 weeks to 8 weeks post-curdlan, female SKG mice, vs CTL
  severity of psoriasis-like dermatitis: reduced the severity
curdlan-treated SKG mice [2]; therapeutic: MIF098 from 4 weeks to 8 weeks post-curdlan, vs CTL
  new bone formation (NBF), histological assessments: reduced
curdlan-treated SKG mice [2]; therapeutic: MIF098 injected from 4 weeks to 8 weeks post-curdlan, female SKG mice, vs CTL
  severity of arthritis: reduced the severity
curdlan-treated SKG mice [3]; [5]
  populations of Th17: decreased populations of Th17
  regulatory T (Treg) cells: increased
curdlan-treated SKG mice [3]; curdlan-treated SKG mice, 8 weeks post-curdlan, vs CTL
  RORγt+Foxp3+CD4+ T cells: decreased
curdlan-treated SKG mice [3]; [6]
  frequency of ILC3s in PLNs: significantly deceased
  frequency of Th17 lineage cells in PLNs: significantly deceased
  percentage of Th17 lineage cells in spleen: no significant difference
  percentage of Tregs (PLNs): significant increase
  percentage of Tregs in spleen: significant increase
  percentage of inflammatory macrophages in the ankle joints: no difference between groups
  percentage of patrolling macrophages in the ankle joints: increase
curdlan-treated SKG mice [3]; prophylactic MIF098, curdlan-treated SKG mice, vs CTL
  ILC2s: remarkably increased

B1: rhMIF: recombinant human MIF (BioLegend) used to stimulate human Tregs (protein, UniProt P14174 2-115, looked up)
Macrophage migration …: PMFIVNTNVPRASVPDGFLSELTQQLAQATGKPPQYIAVHVVPDQLMAFGGSSEPCALCSLHSIGKIGGAQNRSYSKLLCGLLAERLRISPDRVYINYYDMNAANVGWNNSTFA
Human Tregs
  release of IL-6: without increased release
Human Tregs; in the presence of IL1β and IL23, vs without rhMIF
  frequency of RORγt+CD4+ T cells from Tregs: increased
Human Tregs; vs control-treated Tregs
  secretion of IL-17A into the culture media: significantly higher
